Legend:
[1] = Bleach Stability Test (triangle test after storage with perborate and TAED); type: physicochemical; details: number of 20 assessors correctly choosing odd one out; 0.2% material in powder with perborate and TAED, 45° C. one week; up to 9 = bleach-stable, 10 or more = unstable
Experimental: (i) dosing a perfume material into the standard unperfumed washing powder and incubating the dosed powder at 20° C. in a sealed container for seven days;
(ii) dividing the dosed powder into two portions and adding to each portion sodium perborate tetrahydrate together with either TAED granules or sodium sulphate (to act as an inert filler in place of TAED) to provide test and control formulations having the following constitution: […]
(iii) incubating both test and control powders in sealed containers at 45° C. for a further seven days; and
(iv) assessing samples of the test and control powders according to a standard triangle test as described in "Manual on Sensory Testing Methods" published by the American Society for Testing and Materials (1969), using a panel of 20 assessors, who are instructed to judge by smell which of the three powder samples is the odd one out, the perfume material being designated a bleach-stable deodorant perfume component when the odd one out is correctly identified by no more than 9 of the 20 assessors.
The stability of perfume materials to the presence of a bleaching composition is assessed according to a standard test which involves the exposure of these individual perfume materials to a mixture of sodium perborate tetrahydrate and TAED in a detergent fabric washing powder under standard conditions of storage.
In order to perform this test, a detergent powder base is prepared according to a standard blowing technique to form a granulated product. The formulation of the detergent powder base is as follows: […]
A selected perfume material is then incorporated by mixing with a portion of the blown base powder to a final concentration of 0.2% by weight of the finished product, and stored at 20° C. in a sealed container for one week with occasional mixing to ensure an even concentration of the perfume material throughout the powder. The sample is the split into two portions and further ingredients mixed in to provide the following test and control formulations:
100 g samples of each control and test batch of powder containing a selected perfume material are then sealed in containers and stored at 45° C. for one week. Each sample is then assessed in a forced choice triangle test according to the following procedure:
Three samples of powder, either one from the test batch and two from the control batch, or two from the test batch and one from the control batch are then assessed by a panel of 20 assessors who are asked to select by sniffing which of the three samples is the "odd one out".
The fragrance of samples containing bleach-stable perfume materials should be unchanged following incubation in the presence of the perborate and TAED, and accordingly there is a 1 in 3 chance of an assessor selecting correctly the control or test sample as the "odd one out".
The Triangle Test procedure is described and discussed in "Manual on Sensory Testing Methods" published by the American Society for Testing and Materials (1969).
The results of each Triangle Test are calculated as follows: […]
If 10 or more of the 20 assessors choose correctly the "odd one out" of the three samples, then the perfume material under test is judged to be unstable in the presence of bleach. If, however, up to 9 of the 20 accessors choose correctly the "odd one out" of 3 samples, then the perfume material under test is judged to be stable in the presence of bleach.

[2] = Morpholine Test (depression of partial vapour pressure of morpholine, Raoult Variance Ratio); details: morpholine 0.25 g + material 1 g, 37° C., headspace GC
lipoxidase (EC1.13.1.13) = molecular target: T1, lipoxidase (EC1.13.1.13) (Glycine max, UniProt P08170); assay: Lipoxidase Test (inhibition of oxidation of linoleic acid by lipoxidase); type: biochemical; details: test substrate made with 0.5% by weight solution of material in ethanol; for inhibition at 0.5 % strength: borate buffer pH 9.0, 234 nm, read-out: LIC value (Lipoxidase-Inhibiting Capacity); for LIC value (Lipoxidase-Inhibiting Capacity): % inhibition, borate buffer pH 9.0, 234 nm
T1 sequence (P08170 1-839): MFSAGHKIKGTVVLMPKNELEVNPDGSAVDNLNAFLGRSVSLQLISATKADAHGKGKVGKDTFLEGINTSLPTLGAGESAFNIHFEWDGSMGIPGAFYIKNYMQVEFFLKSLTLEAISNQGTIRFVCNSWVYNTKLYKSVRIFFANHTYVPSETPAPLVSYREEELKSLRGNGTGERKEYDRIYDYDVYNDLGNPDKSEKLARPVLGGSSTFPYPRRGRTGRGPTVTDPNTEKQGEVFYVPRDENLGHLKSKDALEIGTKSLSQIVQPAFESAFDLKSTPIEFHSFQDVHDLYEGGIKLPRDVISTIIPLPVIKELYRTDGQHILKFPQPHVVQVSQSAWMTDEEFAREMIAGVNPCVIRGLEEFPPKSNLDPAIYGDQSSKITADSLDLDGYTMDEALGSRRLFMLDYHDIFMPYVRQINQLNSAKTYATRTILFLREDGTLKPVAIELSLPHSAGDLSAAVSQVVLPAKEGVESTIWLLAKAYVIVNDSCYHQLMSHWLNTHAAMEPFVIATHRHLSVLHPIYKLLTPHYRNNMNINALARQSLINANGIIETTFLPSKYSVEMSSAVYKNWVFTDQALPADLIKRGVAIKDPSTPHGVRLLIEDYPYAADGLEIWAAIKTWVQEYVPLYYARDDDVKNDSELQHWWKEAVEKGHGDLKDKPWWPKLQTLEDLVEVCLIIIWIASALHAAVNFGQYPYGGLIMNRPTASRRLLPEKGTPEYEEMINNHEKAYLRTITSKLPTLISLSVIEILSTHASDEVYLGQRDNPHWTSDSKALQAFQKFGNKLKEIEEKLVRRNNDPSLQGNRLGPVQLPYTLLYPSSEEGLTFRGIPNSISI

Molecule	BST panel score [1]	RVR value (Raoult Variance Ratio) [2]	inhibition at 0.5 % strength (lipoxidase (EC1.13.1.13))	LIC value (Lipoxidase-Inhibiting Capacity) (lipoxidase (EC1.13.1.13))
CC1COCc2cc3c(cc21)C(C)(C)C(C)C3(C)C (stereo not drawn) [1,3,4,6,7,8-Hexahydro-4,6,6,7,8,8-hexamethyl cyclopenta-α-2-benzopyran]	5	–	–	–
CCCCCCCC1CCCC1=O (stereo not drawn) [2-n-Heptylcyclo-pentanone]	7	1.05	–	–
CC1(C)CCCC2(C)C1CCC1(C)OCCC12 (stereo not drawn) [3a-Methyl-dodecahydro-6,6,9a-trimethylnaphtho-2(2,1-b)furan]	5	1.30	–	–
O=C(OCc1ccccc1)c1ccccc1O [Benzyl salicylate]	17	1.58	–	–
Cc1ccc(C(C)C)cc1O [Carvacrol]	6	1.43	–	–
OC/C=C/c1ccccc1 [Cinnamic alcohol]	9	1.28	–	–
O=c1ccc2ccccc2o1 [Coumarin]	10	1.22	–	–
CCOC(=O)c1ccccc1C(=O)OCC [Diethyl phthalate]	4	1.20	–	–
CCOC(=O)c1ccccc1O [Ethyl salicylate]	7	1.19	–	–
CCOc1cc(C=O)ccc1O [Ethyl vanillin]	12	1.43	–	–
CCCCCCOC(=O)c1ccccc1O [Hexyl salicylate]	5	–	100%	–
COC(=O)c1ccccc1N [Methyl anthranilate]	6	1.20	69%	–
CCCCCCC(CCOC(C)=O)OC(C)=O (stereo not drawn) [Nonanediol-1,3-diacetate]	8	1.17	–	–
CCCCCC1CCC(=O)O1 (stereo not drawn) [Nonanolide-1,4]	5	0.87	–	–
OCCc1ccccc1 [Phenylethyl alcohol]	10	1.24	–	–
O=C(Cc1ccccc1)OCCc1ccccc1 [Phenylethyl phenyl acetate]	7	1.22	–	–
CC(C)CCOC(=O)c1ccccc1O [iso-Amyl salicylate]	9	1.24	–	–
CC(C)Cc1ccc2ncccc2c1 [iso-Butyl quinoline]	5	1.10	–	–
C/C=C\c1ccc(O)c(OC)c1 [iso-Eugenol]	4	1.48	–	–
CC(=O)OC1CCCCC1C(C)(C)C (stereo not drawn) [o-t-Butylcyclohexyl acetate]	8	1.08	–	–
CCC(C)(C)C1CCC(=O)CC1 [p-t-Amyl cyclohexanone]	8	1.10	–	–
CC(=O)OC1CCC(C(C)(C)C)CC1 (stereo not drawn) [p-t-Butyl cyclohexyl acetate]	10	0.98	–	–
CC(C=O)Cc1ccc(C(C)(C)C)cc1 (stereo not drawn) [p-t-Butyl-α-methyl hydrocinnamic aldehyde]	13	–	–	–
CC(=O)C(C)=CC1C(C)=CCCC1(C)C (stereo not drawn) [α-iso-Methyl ionone]	7	–	–	–
CC(=O)c1ccc2ccccc2c1 [β-Methyl naphthyl ketone]	3	0.96	–	–
Dimyrcetol	9	1.22	–	16%
Hydroxymethyl isopropyl cyclopentane	8	1.23	–	60%
Tetrahydromuguol	8	1.23	–	24%
i-Nonyl acetate	4	0.83	–	50%
i-Nonyl formate	8	1.49	–	19%
